Assays:
[1] = test system: HepG2 cells; assay: Rescue of cell viability in the presence of a mitochondrial inhibitor (rotenone 1 μM); type: cell-based; conditions: Homo sapiens, HepG2
Method: Cytoprotection of HepG2 cells by naphthoquinones was quantified in the presence of the mitochondrial toxin, rotenone. Briefly, HepG2 cells were seeded in 96-well plates at 5000 cells/well in DMEM with 0.3 g/l glucose, 10% FBS and Penicillin-Streptomycin-Glutamine. After overnight incubation under standard conditions, cells were treated with the test compounds (10 μM) for 2 days before cells were challenged with 1 μM rotenone in the presence of 10 μM test compounds in Hank's balanced salt solution (HBSS) for 6 hours. This was followed by post-incubation for an additional 18 hours with only 10 μM test compounds in HBSS. For measurement of cell viability, cells were washed with 100 μL PBS twice and then lysed using 40 μL lysis solution (4 mM EDTA, 0.2% Triton X-100) for 5 min at room temperature (RT) on an orbital shaker at 200 rpm. Then 10 μL of the lysate was mixed with 90 μL of enzyme-substrate mixture (as described above) in a white 96 well plate and luminescence was measured immediately using a plate-reader (Fluoroscan Ascent, Thermo Scientific). The data is expressed as % viability compared to the untreated (no-rotenone) control.
The extent of protection of cellular viability against a rotenone challenge of representative compounds of Formula (I) is shown below in Table 5. Vitamin K, Menadione and Idebenone were used as comparative controls. DMSO was used as a control.

[2] = test system: HepG2 cells; assay: Acute ATP rescue assay (impaired mitochondrial function, rotenone); type: cell-based; conditions: Homo sapiens, 1 h; HepG2; 1 μM quinones with rotenone 10 μM, 60 minutes, glucose-free DMEM; % ATP compared to untreated (no-rotenone) control
Method: HepG2 cells were seeded at a density of 5000 cells per well in a 96-well plate and incubated for 24 hours in DMEM with 0.3 g/l glucose, 10% FBS and Penicillin-Streptomycin-Glutamine. Cells were treated with 1 μM quinones in presence or absence of rotenone (10 μM), for 60 minutes in glucose-free DMEM ATP levels were quantified using luminescence from the ATP-dependent enzymatic oxidation of luciferin by luciferase. Cells were lysed in a volume of 40 μl (4 mM EDTA, 0.2% Triton X-100) for five minutes at room temperature (RT) on an orbital shaker at 200 rpm. […] Luminescence was quantified immediately using a multimode plate reader (Fluoroscan Ascent, Thermo Scientific). ATP levels were standardized to protein levels using a commercial BCA assay (Protein DC; BioRad) and changes were calculated as percentage relative to levels of DMSO-treated control cells. Data is expressed as % ATP compared to the untreated (no-rotenone) control.
Vitamin K, menadione and idebenone were used as comparative controls. DMSO was used as a control.

[3] = test system: LHON model induced by intravitreal rotenone in C57BL/6 mouse; assay: Leber's hereditary optic neuropathy (LHON) mouse model, optomotor response; type: in vivo; conditions: rotenone in left eye, 200 mg/kg orally in food
Method: FIG. 5: Efficacy of representative compounds of Formula (I) in leber's hereditary optic neuropathy (LHON) mouse model. LHON induced by rotenone injection in the left eye (5 μM) in C57BL/6 mouse model (Refer to Heitz, F. D et al. (2012). PLoS One., 7(9), e45182). […] Representative compounds (UTA 37 and UTA 77) and idebenone administered at 200 mg/kg over the observation period.
LHON model was induced by intravitreal injection of rotenone into the left eye in C57BL/6 mouse model as described by Heitz et al. 2012. Representative compounds (UTA 37 and UTA 77) and idebenone administered at 200 mg/kg over the observation period. Vision loss was measured by assessing number of head turns.
C57BL/6 mice (male, 8-11 weeks of age, average body weight≈25 g) were used in accordance with the Australian code for the use of animals for scientific purposes and under the required animal ethics approval from the University of Tasmania (UTAS) Animal Ethics Committee (Approval number A0016080). Animals were given at least seven days to acclimatise to the animal facility to reduce stress induced by transportation before being used for behavioural testing. All mice were supplied orally with test compounds by mixing test compounds into individual daily food portions as described previously (Heitz, F. D. et al. (2012). PLoS One., 7(9), e45182). […]

COc1ccc(CCNC(=O)CCCC2=C(C)C(=O)c3ccccc3C2=O)cc1OC [UTA #77, N-(3,4-dimethoxyphenethyl)-4-(3-methyl-1,4-naphthoquinone-2-yl)butanamide]
viability at 10 µM [1]: 95.9% | activity at 1 µM [2]: 99.1% | Protection of visual acuity (head turns, optomotor response; in words) [3]: Statistically significant protection of visual acuity

From patent US10934253B2, “Therapeutic compounds and methods” (UNIVERSITY OF TASMANIA, priority 2017, dated 2021)
